Assay: Drug excretion in human subject rapid inactivator assessed as sum of isoniazid plus hydrazones, acetylisoniazid, isonicotinic acid and isonicotinuric acid level in urine at 670 mg, iv infused at constant rate 5.2min measured 259 mins after start of drug injection by colorimetry
Format: ADME, organism-based
Details: in vivo

Drug excretion: 40.5 mg
SMILES: NNC(=O)c1ccncc1 [ISONIAZID]
